From BindingDB's records for doi:10.1021/jm990590f (Dupont Pharmaceuticals, 2000)

Key:
[1] = biological target: Corticotropin-releasing factor receptor 1 (Rattus norvegicus) (UniProt P35353); test: Compound was tested for the inhibition of binding of the radioligand, [125 I-Tyr0]-CRF to rat cerebral cortex membrane
[2] = biological target: Corticotropin-releasing factor receptor 1 (Rattus norvegicus) (UniProt P35353); test: Inhibition of corticotropin releasing factor receptor mediated increase in cAMP level using rat cortical homogenates in vitro.

Chain of Corticotropin-releasing factor receptor 1 (Rattus norvegicus) (P35353 whole entry, looked up): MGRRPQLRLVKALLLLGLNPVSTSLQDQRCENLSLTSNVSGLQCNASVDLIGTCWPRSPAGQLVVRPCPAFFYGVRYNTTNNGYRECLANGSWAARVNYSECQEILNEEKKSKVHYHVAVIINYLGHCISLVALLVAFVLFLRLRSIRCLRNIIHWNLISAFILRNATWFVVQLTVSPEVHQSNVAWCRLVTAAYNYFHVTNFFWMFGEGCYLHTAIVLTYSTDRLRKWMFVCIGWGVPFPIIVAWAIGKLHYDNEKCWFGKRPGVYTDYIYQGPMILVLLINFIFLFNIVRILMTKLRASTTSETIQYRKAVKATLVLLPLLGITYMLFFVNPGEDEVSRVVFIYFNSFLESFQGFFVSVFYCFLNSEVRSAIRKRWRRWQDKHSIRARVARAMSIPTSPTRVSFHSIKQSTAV

| Ki [1] [µM] | IC50 [2] [µM] | Structure (SMILES) |
| --- | --- | --- |
| 0.063 |  | CCN(c1nc(C)cc(N2CCOCC2)n1)c1ccc(C(C)C)cc1Br [(2-Bromo-4-isopropyl-phenyl)-ethyl-(4-methyl-6-morpholin-4-yl-pyrimidin-2-yl)-amine] |
|  | 0.079 | COCC(COC)n1nnc2c(Nc3c(C)cc(C)cc3Cl)nc(C)cc21 [DMP-695] |
